According to PMC7413254 (Nature Communications, 2020):

How the values were obtained:
Format in all cases: cell-based
PfCRT^Dd2 [1] = target: T1, PfCRT^Dd2 (Plasmodium falciparum, UniProt Q9N623, A220S/I356T/K76T/M74I/N326S/N75E/Q271E/R371I); assay: [3H]CQ uptake into Xenopus oocytes, cis-inhibition by unlabelled solute; settings: PfCRTDd2 oocytes, background [3H]CQ accumulation subtracted, normalised to oocyte type control
Method in brief: (§1)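 Radioactivity accumulated per oocyte, read by liquid scintillation after 10% SDS lysis, served as the uptake measure. Incubations ran 1.5 h at 27.5 °C in ND96 at pH 5.5, matching digestive-vacuole acidity.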

PfCRT^Ecu1110 [2] = target: T2, PfCRT^Ecu1110 (Plasmodium falciparum, UniProt Q9N623, A220S/I356L/K76T/N326D); assay: as above; settings: for PfCRT-mediated [3H]CQ transport, cis-inhibition (% PfCRTEcu1110 control): PfCRTEcu1110 oocytes, background [3H]CQ accumulation subtracted, normalised to oocyte type control; for [3H]CQ transport (% PfCRTEcu1110 control), cis-inhibition, PfCRTEcu1110: PfCRT-mediated component (background subtracted), sheet title says normalised to PfCRTDd2 control, mean ± SEM, SEM
Method in brief: as §1

PfCRT^3D7 = PfCRT^3D7 (Plasmodium falciparum, UniProt Q8IBZ9); assay: cell-based; settings: PfCRT3D7 oocytes, normalised to oocyte type control
Method in brief: (§2)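 Transport measured in Xenopus oocytes expressing the transporters, 1.5 h at 27.5 °C in ND96 pH 5.5 unless noted. For trans-stimulation, VF-6 injected in 25 nL ND96 at pH 5.0–7.0 or Na^+-free (choline) buffer; intracellular levels based on ~400 nL oocyte volume. Ten oocytes per treatment, ≥4 experiments.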

PfCRT^Dd2 [3] = target: T1, PfCRT^Dd2; assay: cell-based; settings: for PfCRT-mediated [3H]CQ transport, trans-stimulation (% PfCRTDd2 control): PfCRTDd2 oocytes, normalised to oocyte type control; for [3H]CQ transport (% PfCRTDd2 control), trans-stimulation, PfCRTDd2: PfCRT-mediated component (background subtracted), mean ± SEM, SEM
Method in brief: as §2

PfCRT^Ecu1110 [4] = target: T2, PfCRT^Ecu1110; assay: cell-based; settings: for PfCRT-mediated [3H]CQ transport, trans-stimulation (% PfCRTEcu1110 control): PfCRTEcu1110 oocytes, normalised to oocyte type control; for [3H]CQ transport (% PfCRTDd2 control), trans-stimulation, PfCRTEcu1110: PfCRT-mediated component (background subtracted), sheet title says normalised to PfCRTDd2 control, mean ± SEM, SEM
Method in brief: as §2

[5] = [test solute]i = 5 mM (intracellular)
[6] = [test solute]i = 45 mM (intracellular; 30 mM for some solutes due to solubility)
[7] = [test solute]i = 5 mM (injected)
[8] = [test solute]i = 45 mM (30 mM for some solutes due to solubility)

T1 sequence (Q9N623 whole entry A220S/I356T/K76T/M74I/N326S/N75E/Q271E/R371I): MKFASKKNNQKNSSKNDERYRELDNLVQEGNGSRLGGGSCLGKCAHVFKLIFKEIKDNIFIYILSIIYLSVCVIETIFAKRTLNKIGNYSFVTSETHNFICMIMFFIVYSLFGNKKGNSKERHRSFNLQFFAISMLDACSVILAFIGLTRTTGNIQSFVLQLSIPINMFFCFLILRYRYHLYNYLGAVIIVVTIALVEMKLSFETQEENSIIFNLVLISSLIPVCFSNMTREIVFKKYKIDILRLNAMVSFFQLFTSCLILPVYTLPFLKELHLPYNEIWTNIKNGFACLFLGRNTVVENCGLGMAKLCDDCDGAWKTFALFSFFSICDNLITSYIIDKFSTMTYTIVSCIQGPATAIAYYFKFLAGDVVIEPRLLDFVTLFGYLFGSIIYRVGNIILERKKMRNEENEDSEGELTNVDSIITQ
Chain of PfCRT^3D7 (Q8IBZ9 59-398): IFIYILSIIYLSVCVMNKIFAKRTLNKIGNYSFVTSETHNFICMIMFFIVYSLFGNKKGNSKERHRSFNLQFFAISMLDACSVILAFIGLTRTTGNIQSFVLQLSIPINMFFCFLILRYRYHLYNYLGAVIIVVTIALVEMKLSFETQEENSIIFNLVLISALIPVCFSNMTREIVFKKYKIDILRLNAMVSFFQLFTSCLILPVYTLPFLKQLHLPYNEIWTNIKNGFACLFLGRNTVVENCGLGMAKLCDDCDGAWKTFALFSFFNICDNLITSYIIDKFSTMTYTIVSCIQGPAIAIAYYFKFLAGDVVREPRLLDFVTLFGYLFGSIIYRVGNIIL
T2 sequence (Q9N623 whole entry A220S/I356L/K76T/N326D): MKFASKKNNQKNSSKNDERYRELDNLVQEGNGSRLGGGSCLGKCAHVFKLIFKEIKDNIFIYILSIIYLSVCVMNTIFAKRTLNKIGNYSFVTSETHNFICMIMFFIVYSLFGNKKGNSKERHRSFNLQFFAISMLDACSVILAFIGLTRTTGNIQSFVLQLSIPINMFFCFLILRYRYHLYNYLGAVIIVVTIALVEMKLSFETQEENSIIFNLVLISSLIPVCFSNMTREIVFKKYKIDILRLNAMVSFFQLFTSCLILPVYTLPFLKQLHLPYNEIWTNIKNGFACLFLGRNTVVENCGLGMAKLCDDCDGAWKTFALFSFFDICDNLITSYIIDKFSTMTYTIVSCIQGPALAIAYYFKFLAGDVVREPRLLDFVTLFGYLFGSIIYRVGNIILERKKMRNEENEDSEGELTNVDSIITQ

Substance | PfCRT-mediated [3H]CQ transport, cis-inhibition (% PfCRTDd2 control) (PfCRT^Dd2 [1]; [test solute] = 0.5 mM) | PfCRT-mediated [3H]CQ transport, cis-inhibition (% PfCRTDd2 control) (PfCRT^Dd2 [1]; [test solute] = 1 mM) | PfCRT-mediated [3H]CQ transport, cis-inhibition (% PfCRTDd2 control) (PfCRT^Dd2 [1]; [test solute] = 2 mM) | PfCRT-mediated [3H]CQ transport, cis-inhibition (% PfCRTEcu1110 control) (PfCRT^Ecu1110 [2]; [test solute] = 0.5 mM) | PfCRT-mediated [3H]CQ transport, cis-inhibition (% PfCRTEcu1110 control) (PfCRT^Ecu1110 [2]; [test solute] = 1 mM) | [3H]CQ transport (% PfCRTEcu1110 control), cis-inhibition, PfCRTEcu1110 (PfCRT^Ecu1110 [2]; [test solute] = 0.5 mM) | [3H]CQ transport (% PfCRTEcu1110 control), cis-inhibition, PfCRTEcu1110 (PfCRT^Ecu1110 [2]; [test solute] = 1 mM) | [3H]CQ transport (% PfCRTEcu1110 control), cis-inhibition, PfCRTEcu1110 (PfCRT^Ecu1110 [2]; [test solute] = 2 mM) | PfCRT-mediated [3H]CQ transport, trans-stimulation (% PfCRT3D7 control) (PfCRT^3D7; [5]) | PfCRT-mediated [3H]CQ transport, trans-stimulation (% PfCRT3D7 control) (PfCRT^3D7; [6]) | PfCRT-mediated [3H]CQ transport, trans-stimulation (% PfCRTDd2 control) (PfCRT^Dd2 [3]; [5]) | PfCRT-mediated [3H]CQ transport, trans-stimulation (% PfCRTDd2 control) (PfCRT^Dd2 [3]; [6]) | [3H]CQ transport (% PfCRTDd2 control), trans-stimulation, PfCRTDd2 (PfCRT^Dd2 [3]; [7]) | [3H]CQ transport (% PfCRTDd2 control), trans-stimulation, PfCRTDd2 (PfCRT^Dd2 [3]; [8]) | PfCRT-mediated [3H]CQ transport, trans-stimulation (% PfCRTEcu1110 control) (PfCRT^Ecu1110 [4]; [5]) | PfCRT-mediated [3H]CQ transport, trans-stimulation (% PfCRTEcu1110 control) (PfCRT^Ecu1110 [4]; [6]) | [3H]CQ transport (% PfCRTDd2 control), trans-stimulation, PfCRTEcu1110 (PfCRT^Ecu1110 [4]; [7]) | [3H]CQ transport (% PfCRTDd2 control), trans-stimulation, PfCRTEcu1110 (PfCRT^Ecu1110 [4]; [8]) | PfCRT-mediated [3H]CQ transport, cis-inhibition (% PfCRTEcu1110 control) (PfCRT^Ecu1110 [2]; [test solute] = 2 mM)
HAGEYG [HG-6] | 36 ± 2.1 % PfCRTDd2 control | 22 ± 0.9 % PfCRTDd2 control | 9.3 ± 0.1 % PfCRTDd2 control | 35 ± 4.6 % PfCRTEcu1110 control | 27 ± 4.1 % PfCRTEcu1110 control | 11 ± 0.5 % PfCRTEcu1110 control | 9.0 ± 0.05 % PfCRTEcu1110 control | 4.0 ± 0.01 % PfCRTEcu1110 control | 136 ± 3.6 % PfCRT3D7 control | 190 ± 4.2 % PfCRT3D7 control | 101 ± 3.3 % PfCRTDd2 control | 98 ± 2.5 % PfCRTDd2 control | 101 ± 3.3 % PfCRTDd2 control | 98 ± 2.5 % PfCRTDd2 control | 98 ± 2.4 % PfCRTEcu1110 control | 96 ± 3.3 % PfCRTEcu1110 control | 30 ± 1.5 % PfCRTEcu1110 control | 29 ± 1.3 % PfCRTEcu1110 control | 
HFDLS [HS-5] | 20 ± 0.1 % PfCRTDd2 control | 9 ± 0.2 % PfCRTDd2 control | 3.2 ± 0.1 % PfCRTDd2 control | 20 ± 1.3 % PfCRTEcu1110 control |  |  | 3.0 ± 0.04 % PfCRTEcu1110 control | 1.0 ± 0.06 % PfCRTEcu1110 control | 139 ± 4.1 % PfCRT3D7 control | 166 ± 3.2 % PfCRT3D7 control | 100 ± 3.2 % PfCRTDd2 control | 112 ± 1.1 % PfCRTDd2 control | 100 ± 3.2 % PfCRTDd2 control | 112 ± 1.1 % PfCRTDd2 control | 120 ± 2.1 % PfCRTEcu1110 control | 131 ± 1.8 % PfCRTEcu1110 control | 36 ± 1.3 % PfCRTEcu1110 control | 40 ± 1.4 % PfCRTEcu1110 control | 4.3 ± 0.1 % PfCRTEcu1110 control
